The results in this text go back to PMC4900588, “Amphipathic β^2,2-Amino Acid Derivatives Suppress Infectivity and Disrupt the Intracellular Replication Cycle of Chlamydia pneumoniae” (PLoS ONE, 2016).

SMILES strings stand for the structures. Where “and” joins values, the source holds several entries; their conditions need not be identical. Identical values can stand only once. Like-named read-outs stand apart in the source and are kept apart here. Where only a bound is given, the exact number is not on record here.

The nature of series [1]: Resazurin cell viability assay. Type of series: cell-based, human. As to conditions: human, HL cells. The procedure: (§1) HL cells were seeded into 96-well plates at density […] and incubated overnight before starting the exposure. The β^2,2-amino acid derivatives were added at concentrations of 5 μM either in the presence or absence of 1 μg/ml cycloheximide in a final volume of 200 μl and the plates were incubated for 72 h. The resazurin assay was performed as described in Karlsson et al..
For orientation: Alamar Blue is a resazurin reagent that responds to reducing activity.

For a further series, the system named is C. pneumoniae strain K7. The series is described as follows: C. pneumoniae inclusion count inhibition in infected HL cells (immunofluorescence). The format is cell-based, Chlamydia pneumoniae. The following applies: for reduction in inclusion counts / inhibition against C. pneumoniae / inhibition at 5 µM: 5 μM, added at 2 hpi, 72 h; for reduction in inclusion counts / inhibition against C. pneumoniae / inhibition at 5 µM / IC50: strain K7, HL cells; for inhibition at 5 µM: read-out: reduction in inclusion counts / inhibition against C. pneumoniae; for IC50: read-out: IC50 (inclusion counts, dose-response); for concentration that inhibits infectivity and interferes with inclusions: human epithelial HL cells. The procedure: Human epithelial HL cells were grown in a RPMI1640 medium supplemented with 7.5% fetal bovine serum (FBS), 2 mM L-glutamine and 20 μg/ml gentamicin sulfate. A clinical C. pneumoniae isolate Kajaani 7 (K7), originally isolated from a young person suffering from pneumonia was obtained from Professor Pekka Saikku (Department of Medicinal Microbiology, Institute of Diagnostics, University of Oulu, Finland) and a cardiovascular C. pneumoniae isolate CV-6 was obtained from Professor Matthias Maass (Paracelsus Medical University, Salzburg, Austria). The reference strains CWL-029 (VR-1310) and AR-39 (ATCC 53592) were obtained from American Type Culture Collection (ATCC). All strains were propagated in HL cells as previously described. The K7 strain was used in all studies whereas CV-6 and the ATCC reference strains were used to confirm our initial compound screening data.
(§2) For all experiments applying immunofluorescence, HL cells were seeded in 24-well plates with coverslips at density of 4 x 10^5 cells/well and incubated overnight before infection. The cells were inoculated with C. pneumoniae at multiplicity of infection (MOI) 0.2 in the cell growth media supplemented with 1 μg/ml cycloheximide to enhance chlamydial growth. The inoculated cultures were centrifuged at 550 g at 4°C for 1 h and incubated at 37°C for 1 h. Inocula were removed, fresh medium was added into wells and the plates were incubated for 70 h. Afterwards the cultures were fixed with methanol and the coverslips were stained with Pathfinder Chlamydia cell culture confirmation system (Bio-Rad) based on a genus-specific anti-LPS antibody to visualize the host cells and chlamydial inclusions. Detailed protocols for the infection and staining can be found in [29]. Unless otherwise stated in the text, the derivatives were added into the culture medium at 2 hours post infection (hpi), i.e., at the time when inocula were removed. […] DMSO concentration was adjusted to 0.1% in all experiments.
All experiments were carried out as four replicates in minimum and the inclusion counts were determined as mean ± SEM of 4 eye fields per coverslip. For statistical analysis GraphPad Prism software v. 5.0 and Student’s t-test (p < 0.05) were applied.

In another series the test system is C. pneumoniae EBs. The series is described as follows: Elementary body infectivity assay. As to conditions: Chlamydia pneumoniae; EBs treated with 5 μM for 1 h before inoculation of HL cells; read-out: inhibition of EB infectivity. The format is cell-based. The procedure:
C. pneumoniae EBs were suspended into the HL cell growth medium supplemented with cycloheximide at 400 000 inclusion forming units (IFU)/ml and exposed to 5 μM of the derivatives A1—A6 for 1 h at 4°C. Immediately afterwards, aliquots of the EBs suspensions were used to infect HL cell monolayers as described above (MOI 0.2), resulting in typically 40–60 inclusions per eye field in nontreated control infections.

Another series relates to HL cells. The experiment in a line: Resazurin cell viability assay. The format is cell-based, human. The following applies: 5 μM, 72 h. The protocol:
as §1

The subject of series [2] is C. pneumoniae. The series is described as follows: Delayed administration assay. Type of series: cell-based, Chlamydia pneumoniae. As to conditions: for reduction in inclusion vacuole counts: 3 μM, added at 6 hpi or later; for inhibition at 3 µM: Chlamydia pneumoniae, added at 2 hpi, read-out: inhibition of inclusion vacuole counts. The protocol: as §2
HL cells were infected as described above and treated with derivatives at concentrations of 3 μM in order to cause inhibition of infection above 50%. The treatment of the infected cells was delayed by 4, 10 and 22 h and inclusions counts were subsequently performed as described above.

The subject of series [3] is C. pneumoniae. The experiment in a line: Infectious progeny assay. The format is cell-based, Chlamydia pneumoniae. The following applies: for inclusion vacuole counts in the second passage of infection vs untreated control: 5 μM; for suppression of infectious progeny production: administered at 6 hpi or later (data not shown). The procedure:
To measure the effects of the β^2,2-amino acid derivatives on production of new infectious progeny by C. pneumoniae, HL cells were infected with C. pneumoniae as described above in the presence of the derivatives (at a concentration of 5 μM). At 72 hpi, medium was removed from the wells and 200 μl fresh medium was added. The cells were scraped off and then further lysed by vortexing with glass beads, and the lysates were used to infect fresh HL cell monolayers. Inclusion counts in the second passage of infection were determined with immunofluorescent staining as described above, and control wells fixed and stained after the first infectious cycle were used as internal controls.

Series [4] relates to C. pneumoniae inclusions in HL cells. The format is cell-based, Chlamydia pneumoniae. The following applies: 2.5 μM added at 2 hpi. The procedure:
HL cells were seeded in 6-well plates at 2 x 10^6 cells per well and cultured overnight. The cell monolayers were infected with C. pneumoniae (MOI 1) and treated with 2.5 μM of derivative A2 by adding it to the culture medium at 2 hpi based on findings in the dose-response assay. Untreated and uninfected HL control cells were incubated concurrently. The cells were pre-fixed at 24, 48 and 72 hpi with Karnovsky's fixative at 4°C, overnight. The samples were further processed for TEM as described in [30].

Broadly, the viability is the share of living cells, or the viability signal relative to a control. `CN(C)CCOC(=O)C(CN)(Cc1ccc(C(C)(C)C)cc1)Cc1ccc(C(C)(C)C)cc1` [A6] returned a viability at 72 h, 5 µM in series [1] of 18.4%. Also, the “reduction in inclusion counts / inhibition against C. pneumoniae” value in the series on C. pneumoniae strain K7 is recorded as “full inhibition”. The inhibition at 5 µM in the series on C. pneumoniae EBs worked out at 90%.
Consider `CC[C@H]1OC(=O)[C@H](C)[C@@H](O[C@H]2C[C@@](C)(OC)[C@@H](O)[C@H](C)O2)[C@H](C)[C@@H](O[C@@H]2O[C@H](C)C[C@H](N(C)C)[C@H]2O)[C@](C)(O)C[C@@H](C)CN(C)[C@H](C)[C@@H](O)[C@]1(C)O` [azithromycin, reference compound], for which the inhibition at 0.02 µM in the series with C. pneumoniae strain K7 (Chlamydia pneumoniae, K7, positive control, 20 nM, read-out: inhibition in C. pneumoniae inclusion counts) lay within 95 to 98%.
For orientation: IC50 means the concentration needed to halve the response being measured. `NCCNC(=O)C(CN)(Cc1ccc(C(F)(F)F)cc1)Cc1ccc(C(F)(F)F)cc1` [A1]: the “effect on host HL cell viability (in words)” value (shortened to “effect”) in the series with HL cells is given as “no substantial effect on host HL cell viability”. In the series on C. pneumoniae strain K7 (Chlamydia pneumoniae), the inhibition at 5 µM was 95.6%; the IC50 is 2 µM and 1.4 µg/mL. In the series with C. pneumoniae strain K7, the “concentration that inhibits infectivity and interferes with inclusions” value was “below 5 μM”. In the series on C. pneumoniae EBs, the inhibition at 5 µM was at most 50%. For the same compound, in the series on C. pneumoniae [2], the “reduction in inclusion vacuole counts” value is on record as 10–20% and the inhibition at 3 µM is around 70%. In addition, in the series on C. pneumoniae [3], the “inclusion vacuole counts in the second passage of infection vs untreated control” value is “significantly lower” and the “suppression of infectious progeny production” value is reported as “neither A1 nor A2 suppressed C. pneumoniae infectious progeny production”.
Turning to `CN(C)CCOC(=O)C(CN)(Cc1ccc(C(F)(F)F)cc1)Cc1ccc(C(F)(F)F)cc1` [A4], the “effect” value with HL cells is reported as “no cytotoxic effects”. Further, the figures for the inhibition at 5 µM in the series on C. pneumoniae strain K7 (Chlamydia pneumoniae) and in the series on C. pneumoniae EBs were 23.2% and 20%, respectively.
For `NCCNC(=O)C(CN)(Cc1ccc2ccccc2c1)Cc1ccc2ccccc2c1` [A2], the “TEM finding in infected HL cells” value in series [4] (24 hpi) is “affected inclusion vacuoles were visible”. The “TEM finding in infected HL cells” value in series [4] (48 hpi) is “smaller inclusions, which only contained fragments of RBs and EBs”. For the same compound, the “TEM finding in infected HL cells” value in series [4] (72 hpi) is listed as “no RBs or EBs were present”. Further, the “effect” value with HL cells was “no substantial effect on host HL cell viability”. Besides, in the series with C. pneumoniae strain K7 (Chlamydia pneumoniae), the inhibition at 5 µM came to 100%; the IC50 is 2 µM and 1.3 µg/mL. Further, the “concentration that inhibits infectivity and interferes with inclusions” value in the series on C. pneumoniae strain K7 is “below 5 μM”. In the series on C. pneumoniae EBs, the inhibition at 5 µM was at most 50%. Further, in the series with C. pneumoniae [2], the “reduction in inclusion vacuole counts” value is recorded as 20–30% and the inhibition at 3 µM was around 80%. Further, in the series on C. pneumoniae [3], the “inclusion vacuole counts in the second passage of infection vs untreated control” value is “significantly lower” and the “suppression of infectious progeny production” value is listed as “neither A1 nor A2 suppressed C. pneumoniae infectious progeny production”.
As for `CN(C)CCOC(=O)C(CN)(Cc1ccc2ccccc2c1)Cc1ccc2ccccc2c1` [A5], in the series with HL cells, the “reduction of HL cell viability” value was 35.6%. For the same compound, the inhibition at 5 µM with C. pneumoniae strain K7 (Chlamydia pneumoniae) turned out to be 89.8%; in the series on C. pneumoniae EBs, 66%.
Consider `CO[C@H]1/C=C/O[C@@]2(C)Oc3c(C)c(O)c4c(O)c(c(/C=N/N5CCN(C)CC5)c(O)c4c3C2=O)NC(=O)/C(C)=C\C=C\[C@H](C)[C@H](O)[C@@H](C)[C@@H](O)[C@@H](C)[C@H](OC(C)=O)[C@@H]1C` [Rifampicin, reference compound], for which the inhibition at 0.012 µM with C. pneumoniae strain K7 (Chlamydia pneumoniae, K7, positive control, 12 nM, read-out: inhibition in C. pneumoniae inclusion counts) lay in the range of 95 to 98%.
`CC(C)(C)c1ccc(CC(CN)(Cc2ccc(C(C)(C)C)cc2)C(=O)NCCN)cc1` [A3]: the viability at 72 h, 5 µM in series [1] was 30.6%. Moreover, the “reduction in inclusion counts / inhibition against C. pneumoniae” value with C. pneumoniae strain K7 is listed as “full inhibition”. Also, the inhibition at 5 µM in the series with C. pneumoniae EBs came to 77%.
